Where two headings read alike, the source gives them in different places. Marks after values point to notes of the source that are not given here.
Columns and labels:
[1] = target: T1, human nAChRα6-α3 chimera, in addition to β2 and β3^V273S subunits (Homo sapiens, UniProt P32297+Q15825); experiment: fluorescence-based calcium assay: inhibition of nicotine stimulated nAChRα6 activity (FLIPR); details: HEK cell line stably expressing the receptor, 10 min pre-incubation, nicotine EC80, 10-point curve, duplicate wells
T1 construct: expressed in transfected cells
T1 sequence (Q05901 25-458 V273S): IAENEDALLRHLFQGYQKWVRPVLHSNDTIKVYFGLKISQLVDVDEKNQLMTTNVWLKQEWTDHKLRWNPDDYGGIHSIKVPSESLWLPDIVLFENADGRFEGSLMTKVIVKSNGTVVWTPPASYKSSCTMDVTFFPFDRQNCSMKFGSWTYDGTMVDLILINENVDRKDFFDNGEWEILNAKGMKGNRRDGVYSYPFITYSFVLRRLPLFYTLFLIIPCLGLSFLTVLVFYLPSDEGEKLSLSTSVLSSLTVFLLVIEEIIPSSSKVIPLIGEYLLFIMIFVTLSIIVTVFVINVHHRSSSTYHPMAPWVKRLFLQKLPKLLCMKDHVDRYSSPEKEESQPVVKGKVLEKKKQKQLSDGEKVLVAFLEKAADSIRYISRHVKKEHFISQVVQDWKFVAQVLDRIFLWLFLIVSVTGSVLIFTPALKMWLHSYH
T1 sequence (P17787 26-502, stated change not applied, further chain): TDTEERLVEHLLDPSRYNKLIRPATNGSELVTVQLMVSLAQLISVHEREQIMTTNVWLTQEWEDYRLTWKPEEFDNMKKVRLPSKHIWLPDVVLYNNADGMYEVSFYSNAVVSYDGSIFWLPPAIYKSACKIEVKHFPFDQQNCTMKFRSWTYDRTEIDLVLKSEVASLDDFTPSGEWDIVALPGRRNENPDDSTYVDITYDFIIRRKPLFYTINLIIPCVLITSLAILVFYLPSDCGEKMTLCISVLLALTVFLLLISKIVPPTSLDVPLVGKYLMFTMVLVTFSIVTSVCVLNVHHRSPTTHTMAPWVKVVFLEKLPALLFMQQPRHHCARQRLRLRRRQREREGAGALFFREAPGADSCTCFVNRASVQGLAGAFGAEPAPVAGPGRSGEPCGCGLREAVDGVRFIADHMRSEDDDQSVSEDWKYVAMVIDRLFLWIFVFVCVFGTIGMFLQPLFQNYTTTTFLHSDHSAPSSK
T1 sequence (Q15825+P32297 fused with the stated changes): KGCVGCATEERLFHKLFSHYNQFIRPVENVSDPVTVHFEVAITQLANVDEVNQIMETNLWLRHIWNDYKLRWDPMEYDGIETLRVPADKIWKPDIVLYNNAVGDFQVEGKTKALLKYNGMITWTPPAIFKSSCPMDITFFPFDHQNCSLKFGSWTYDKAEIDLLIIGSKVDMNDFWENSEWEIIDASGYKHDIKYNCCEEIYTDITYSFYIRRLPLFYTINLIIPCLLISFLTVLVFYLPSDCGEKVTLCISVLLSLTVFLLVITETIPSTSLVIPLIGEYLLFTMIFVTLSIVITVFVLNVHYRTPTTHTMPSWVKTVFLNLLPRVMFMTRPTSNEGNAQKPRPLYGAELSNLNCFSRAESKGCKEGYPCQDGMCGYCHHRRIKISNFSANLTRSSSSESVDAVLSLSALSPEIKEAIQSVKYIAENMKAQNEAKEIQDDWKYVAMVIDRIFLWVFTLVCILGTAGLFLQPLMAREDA
In short: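 HEK cells stably expressing the human α6-α3 chimera with β2 and β3^V273S were loaded with calcium dye at 30° C. Compounds were pre-incubated for 10 min before nicotine at EC80, and the fluorescence change was read on a FLIPR. Ten-point half-log concentration-response, duplicate wells.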

[2] = system: tremulous jaw movements induced by tacrine in male C57BL/6J mice; experiment: tacrine-induced tremulous jaw movements, mice; type: in vivo; details: mouse; 10 mg/kg p.o.; tacrine 5 mg/kg i.p.; n=10/group; tremulous jaw movements relative to vehicle (100%)
Method: (§1) Resting tremor is one of the classic symptoms of Parkinson's disease. These characteristic tremors can be modelled pharmacologically in preclinical models using cholinomimetics such as the acetylcholine esterase inhibitor, tacrine (5 mg/kg, i.p.) (Salamone et al, Prog Neurobiol 56: 591-611 1998) to induce tremulous jaw movement behaviours. These tremulous jaw movements are thought to arise from an imbalance between cholinergic and dopaminergic neurotransmission and are thought to mimic the imbalances in neurotransmission resulting from the dopamine loss seen in Parkinson's disease (Aosaki et al, Geriatr Gerontol Int 10: s148-s157 2010). These tremors can be reversed by agents increasing the dopamine tone, such as dopamine agonists (Salamone et al, Behav Brain Res 156: 173-179 2005).
The objective of these studies was to evaluate the effects of oral administration of Example Compounds on tremulous jaw movements induced by tacrine in male C57BL/6J mice or Sprague-Dawley rats. Animals were administered vehicle (0.5% methylcellulose, p.o.) or Example Compound (across a range of doses; 10 mg/kg, p.o. data shown) 15 to 60 minutes prior to behavioural testing (n=10/group). Tacrine (5 mg/kg, i.p.) was administered to all animals immediately before behavioural assessment commenced. For each animal the latency to the first tremulous jaw movement and the total duration of the tremulous jaw movements post tacrine administration were recorded.
illustrative data shown is percentage attenuation of tacrine-induced tremulous jaw movements relative to vehicle (100%). Each compound shown was tested at 10 mg/kg p.o.
(§2) Statistical significance was assessed using an unpaired student's t-test vs vehicle * p<0.05, ***p<0.001.

[3] = system: tremulous jaw movements induced by tacrine in Sprague-Dawley rats; experiment: tacrine-induced tremulous jaw movements, rats; type: in vivo; details: rat; 10 mg/kg p.o.; tacrine 5 mg/kg i.p.; n=10/group; tremulous jaw movements relative to vehicle (100%)
Method: as §1
The objective of these studies was to evaluate the effects of oral administration of Example Compounds on tremulous jaw movements induced by tacrine in male C57BL/6J mice or Sprague-Dawley rats. […] For each animal the latency to the first tremulous jaw movement and the total duration of the tremulous jaw movements post tacrine administration were recorded. […]
as §2

SMILES	IC50 ([1]; read-out: IC50) [µM]	other results
Cc1nc(NC[C@H]2CCCN2C)ncc1-c1ccc(F)cc1F [Example 24b, (R)-5-(2,4-difluorophenyl)-4-methyl-N-((1-methylpyrrolidin-2-yl)methyl) pyrimidin-2-amine]	0.005	% Decrease from vehicle or percentage relative to vehicle (100%), (mean ± SEM) [2]: 23.9 ± 3.8*** %
CCN1CCC[C@H](Nc2ncc(-c3ccc(F)cc3F)c(C)n2)C1.O=C(O)/C=C/C(=O)O (single isomer, unassigned) [Example 78b]	0.06	% Decrease from vehicle or percentage relative to vehicle (100%), (mean ± SEM) [2]: 23.8 ± 7.7*** %
CC(C)N1CCC(Nc2ncc(-c3ccc(F)cc3F)c(C#N)n2)CC1 [Example 65, 5-(2,4-difluorophenyl)-2-((1-isopropylpiperidin-4-yl)amino)pyrimidine-4-carbonitrile]	0.084	% Decrease from vehicle or percentage relative to vehicle (100%), (mean ± SEM) [3]: 30.0 ± 12.8* %
Cc1nc(NC[C@@H]2CCCN2)ncc1-c1ccc(F)cc1F [Example 94b, (S)-5-(2,4-difluorophenyl)-4-methyl-N-(pyrrolidin-2-ylmethyl)pyrimidin-2-amine]	0.005	% Decrease from vehicle or percentage relative to vehicle (100%), (mean ± SEM) [2]: 79.9 ± 7.2%
Cc1nc(NC(C)[C@@H]2CCCN2C)ncc1-c1ccc(C(F)(F)F)cc1F (single isomer, unassigned) [Example 132b, 5-(2-fluoro-4-(trifluoromethyl)phenyl)-4-methyl-N-((1*S)-1-((2S)-1-methylpyrrolidin-2-yl)ethyl)pyrimidin-2-amine]	0.097	
Cc1nc(NC(C)C2CCN(C)C2)ncc1-c1ccc(F)cc1F (single isomer, unassigned) [Example 64a, 5-(2,4-difluorophenyl)-4-methyl-N-(1-(1-methylpyrrolidin-3-yl)ethyl) pyrimidin-2-amine]	0.09	
Cc1nc(NCC2CCC(C)N2C)ncc1-c1ccc(C(F)(F)F)cc1F (single isomer, unassigned) [Example 138c, N-(((2*R,5*S)-1,5-dimethylpyrrolidin-2-yl)methyl)-5-(2-fluoro-4-(trifluoromethyl)phenyl)-4-methyl-pyrimidin-2-amine]	0.069	
Cc1nc(NC[C@@]2(C)CCCN2)ncc1-c1ccc(C(F)(F)F)cc1F [Example 135, (R)-5-(2-fluoro-4-(trifluoromethyl)phenyl)-4-methyl-N-((2-methyl-pyrrolidin-2-yl)methyl)pyrimidin-2-amine]	0.07	
Cc1nc(NC2CCCN(C)C2)ncc1-c1ccc(F)cc1F (single isomer, unassigned) [Example 77b, 5-(2,4-difluorophenyl)-4-methyl-N-(1-methylpiperidin-3-yl)pyrimidin-2-amine]	0.093	
Cc1nc(NCC2CCC(C)N2C)ncc1-c1ccc(C(F)(F)F)cc1F (single isomer, unassigned) [Example 138a, N-(((2*R,5*R)-1,5-dimethylpyrrolidin-2-yl)methyl)-5-(2-fluoro-4-(trifluoromethyl)phenyl)-4-methyl-pyrimidin-2-amine]	0.207	
Cc1nc(NC[C@H]2CCCCN2)ncc1-c1ccc(C(F)(F)F)cc1F [Example 104a, (R)-5-(2-fluoro-4-(trifluoromethyl)phenyl)-4-methyl-N-(2-piperidinylmethyl)pyrimidin-2-amine]		IC50 ([1]; IC50 (μM)): 0.104 µM
Cc1nc(NC[C@H]2CCCN2C)ncc1-c1ccc(F)cc1C(F)(F)F [Example 92a, (R)-5-(4-fluoro-2-(trifluoromethyl)phenyl)-4-methyl-N-((1-methylpyrrolidin-2-yl)methyl)pyrimidin-2-amine]	0.033	
Cc1nc(NC[C@H]2NCC[C@@H]2F)ncc1-c1ccc(C(F)(F)F)cc1F (single isomer, unassigned) [Example 133a, 5-(2-fluoro-4-(trifluoromethyl)phenyl)-N-(((2*S,3*R)-3-fluoropyrrolidin-2-yl)methyl)-4-methyl-pyrimidin-2-amine]	0.305	
Cc1nc(N[C@@H]2CCNC2)ncc1-c1ccc(C(F)(F)F)cc1F [Example 110, (R)-5-(2-fluoro-4-(trifluoromethyl)phenyl)-4-methyl-N-(pyrrolidin-3-yl)pyrimidin-2-amine]	0.054	
Cc1nc(NC[C@H]2CN(C)CCO2)ncc1-c1ccc(C(F)(F)F)cc1F (single isomer, unassigned) [Example 108b]	0.077	
COc1ccc(-c2cnc(NCC3CCCCN3C)nc2C#N)c(F)c1 (stereo not drawn) [Example 25, 5-(2-fluoro-4-methoxyphenyl)-2-(((1-methylpiperidin-2-yl)methyl)amino) pyrimidine-4-carbonitrile]	0.034	
COc1ccc(-c2cnc(NC3CCCN(C(C)C)C3)nc2C)c(F)c1 (stereo not drawn) [Example 48, 5-(2-fluoro-4-methoxyphenyl)-N-(1-isopropylpiperidin-3-yl)-4-methyl-pyrimidin-2-amine]	0.083	
COc1ccc(-c2nnc(NCC3CCCN3C)nc2C)c(F)c1 (single isomer, unassigned) [Example 54b, 6-(2-fluoro-4-methoxyphenyl)-5-methyl-N-((1-methylpyrrolidin-2-yl)methyl)-1,2,4-triazin-3-amine]	0.442	
Cc1nc(NC2CC23CCNCC3)ncc1-c1ccc(C(F)(F)F)cc1F (stereo not drawn) [Example 123, N-(5-(2-fluoro-4-(trifluoromethyl)phenyl)-4-methyl-pyrimidin-2-yl)-6-azaspiro[2.5]octan-1-amine]	0.15	
COc1ccc(-c2cnc(NCC3CCCOC3)nc2C)c(F)c1 (stereo not drawn) [Example 51, 5-(2-fluoro-4-methoxyphenyl)-4-methyl-N-((tetrahydro-2H-pyran-3-yl)methyl)pyrimidin-2-amine]	1.1	

Source: US20240059677A1, “SUBSTITUTED PYRIMIDINE DERIVATIVES AS NICOTINIC ACETYLCHOLINESTERASE RECEPTOR ALPHA 6 MODULATOR” (priority 2020, published 2024)
